{
  "source": "patent US9700546B2",
  "about": "“Trivalent chromium compounds, compositions and methods of use” (INTERHEALTH NUTRACEUTICALS, INC., priority 2006, dated 2017)",
  "key": {"Obese Zucker rats [1]": {"system": "Obese Zucker rats", "assay": "In vivo assessment in obese Zucker rats: body weight and food intake", "conditions": "obese Zucker rats, daily 400 μg Cr(III)/kg, mean; for Food Intake 5 wks: at 5 weeks; for Food Intake 7 wks: at 7 weeks"}, "Obese Zucker rats [2]": {"system": "Obese Zucker rats", "assay": "In vivo assessment in obese Zucker rats: blood lipid profile (total cholesterol, triglycerides, HDL)", "conditions": "daily 400 μg Cr(III)/kg, 8 weeks, mean"}, "Obese Zucker rats [3]": {"system": "Obese Zucker rats", "assay": "In vivo assessment in obese Zucker rats: other vascular inflammation markers (cAMP, TNFα, IL-6, OxyDNA)", "conditions": "obese Zucker rats, daily 400 μg Cr(III)/kg, 8 weeks, mean ± SE; for OxyDNA: oxidative DNA damage"}, "Obese Zucker rats [4]": {"system": "Obese Zucker rats", "assay": "In vivo assessment in obese Zucker rats: vascular inflammation markers (MCP-1, CRP, RBP-4, leptin, ICAM, adiponectin)", "conditions": "obese Zucker rats, daily 400 μg Cr(III)/kg, 8 weeks, mean; for Adiponectin / CRP / ICAM / MCP-1: plasma, ELISA"}, "Obese Zucker rats [5]": {"system": "Obese Zucker rats", "assay": "In vivo assessment in obese Zucker rats: key biological parameters (fasting glucose, HbA1c, vitamin C, GSH, RBC lipid peroxidation)", "conditions": "obese Zucker rats, daily 400 μg Cr(III)/kg, 8 weeks, mean; for RBC Lipid Peroxidase: malondialdehyde by thiobarbituric acid; for Fasting Glucose: fasted overnight; for Vitamin C: plasma"}, "[6]": {"conditions": "men and women; cited from earlier work"}},
  "data": [
    {"substance": "Chromium Dinicotinate Glycinate [Cr(nic)2Gly, reference compound]", "values": [
      {"measurement": "Food Intake 5 wks", "setting": "Obese Zucker rats [1]", "value": 34.29, "unit": "g/day"},
      {"measurement": "Food Intake 7 wks", "setting": "Obese Zucker rats [1]", "value": 37.14, "unit": "g/day"},
      {"measurement": "HDL", "setting": "Obese Zucker rats [2]", "value": 64.57, "unit": "mg/dL"},
      {"measurement": "Total Chol/HDL", "setting": "Obese Zucker rats [2]", "value": 3.00, "unit": "ratio"},
      {"measurement": "Total Cholesterol", "setting": "Obese Zucker rats [2]", "value": 193.14, "unit": "mg/dL"},
      {"measurement": "Triglyceride", "setting": "Obese Zucker rats [2]", "value": 610.33, "unit": "mg/dL"},
      {"measurement": "IL-6", "setting": "Obese Zucker rats [3]", "value": "91.96 ± 3.83", "unit": "pg/mL"},
      {"measurement": "cAMP", "setting": "Obese Zucker rats [3]", "value": "31.40 ± 1.57", "unit": "pmol/mL"},
      {"measurement": "OxyDNA", "setting": "Obese Zucker rats [3]", "value": "45.62 ± 1.86", "unit": "ng/mL"},
      {"measurement": "Leptin", "setting": "Obese Zucker rats [4]", "value": 461.16, "unit": "pg/mL"},
      {"measurement": "RBP-4", "setting": "Obese Zucker rats [4]", "value": 54900.00, "unit": "ng/mL"},
      {"measurement": "Adiponectin", "setting": "Obese Zucker rats [4]", "value": 12552.86, "unit": "ng/mL"},
      {"measurement": "CRP", "setting": "Obese Zucker rats [4]", "value": 535.98, "unit": "ng/mL"},
      {"measurement": "ICAM", "setting": "Obese Zucker rats [4]", "value": 16691.40, "unit": "pg/mL"},
      {"measurement": "MCP-1", "setting": "Obese Zucker rats [4]", "value": 2897.61, "unit": "pg/mL"},
      {"measurement": "RBC Lipid Peroxidase", "setting": "Obese Zucker rats [5]", "value": 2.11, "unit": "nmol/mL"},
      {"measurement": "Fasting Glucose", "setting": "Obese Zucker rats [5]", "value": 448.29, "unit": "mg/dL"},
      {"measurement": "GSH", "setting": "Obese Zucker rats [5]", "value": 4.86, "unit": "µmol/g"},
      {"measurement": "HbA1c", "setting": "Obese Zucker rats [5]", "value": 14.45, "unit": "%"},
      {"measurement": "Vitamin C", "setting": "Obese Zucker rats [5]", "value": 0.15, "unit": "mg %"}
    ]},
    {"substance": "Chromium Dinicotinate Phenylalanine [Cr(nic)2Phe]", "values": [
      {"measurement": "Food Intake 5 wks", "setting": "Obese Zucker rats [1]", "value": 38.16, "unit": "g/day"},
      {"measurement": "Food Intake 7 wks", "setting": "Obese Zucker rats [1]", "value": 39.22, "unit": "g/day"},
      {"measurement": "HDL", "setting": "Obese Zucker rats [2]", "value": 70.43, "unit": "mg/dL"},
      {"measurement": "Total Chol/HDL", "setting": "Obese Zucker rats [2]", "value": 2.87, "unit": "ratio"},
      {"measurement": "Total Cholesterol", "setting": "Obese Zucker rats [2]", "value": 201.71, "unit": "mg/dL"},
      {"measurement": "Triglyceride", "setting": "Obese Zucker rats [2]", "value": 583.00, "unit": "mg/dL"},
      {"measurement": "IL-6", "setting": "Obese Zucker rats [3]", "value": "84.82 ± 1.60", "unit": "pg/mL"},
      {"measurement": "cAMP", "setting": "Obese Zucker rats [3]", "value": "31.60 ± 1.22", "unit": "pmol/mL"},
      {"measurement": "OxyDNA", "setting": "Obese Zucker rats [3]", "value": "40.63 ± 3.74", "unit": "ng/mL"},
      {"measurement": "Leptin", "setting": "Obese Zucker rats [4]", "value": 351.16, "unit": "pg/mL"},
      {"measurement": "RBP-4", "setting": "Obese Zucker rats [4]", "value": 53891.43, "unit": "ng/mL"},
      {"measurement": "Adiponectin", "setting": "Obese Zucker rats [4]", "value": 12712.86, "unit": "ng/mL"},
      {"measurement": "CRP", "setting": "Obese Zucker rats [4]", "value": 633.55, "unit": "ng/mL"},
      {"measurement": "ICAM", "setting": "Obese Zucker rats [4]", "value": 17480.50, "unit": "pg/mL"},
      {"measurement": "MCP-1", "setting": "Obese Zucker rats [4]", "value": 1755.25, "unit": "pg/mL"},
      {"measurement": "RBC Lipid Peroxidase", "setting": "Obese Zucker rats [5]", "value": 1.97, "unit": "nmol/mL"},
      {"measurement": "Fasting Glucose", "setting": "Obese Zucker rats [5]", "value": 510.43, "unit": "mg/dL"},
      {"measurement": "GSH", "setting": "Obese Zucker rats [5]", "value": 5.05, "unit": "µmol/g"},
      {"measurement": "HbA1c", "setting": "Obese Zucker rats [5]", "value": 15.95, "unit": "%"},
      {"measurement": "Vitamin C", "setting": "Obese Zucker rats [5]", "value": 0.15, "unit": "mg %"}
    ]},
    {"substance": "Chromium Dinicotinate Tryptophanate [Cr(nic)2Trp]", "values": [
      {"measurement": "Food Intake 5 wks", "setting": "Obese Zucker rats [1]", "value": 40.49, "unit": "g/day"},
      {"measurement": "Food Intake 7 wks", "setting": "Obese Zucker rats [1]", "value": 40.78, "unit": "g/day"},
      {"measurement": "HDL", "setting": "Obese Zucker rats [2]", "value": 69.43, "unit": "mg/dL"},
      {"measurement": "Total Chol/HDL", "setting": "Obese Zucker rats [2]", "value": 2.86, "unit": "ratio"},
      {"measurement": "Total Cholesterol", "setting": "Obese Zucker rats [2]", "value": 183.17, "unit": "mg/dL"},
      {"measurement": "Triglyceride", "setting": "Obese Zucker rats [2]", "value": 470.67, "unit": "mg/dL"},
      {"measurement": "IL-6", "setting": "Obese Zucker rats [3]", "value": "92.09 ± 1.89", "unit": "pg/mL"},
      {"measurement": "cAMP", "setting": "Obese Zucker rats [3]", "value": "30.36 ± 1.48", "unit": "pmol/mL"},
      {"measurement": "OxyDNA", "setting": "Obese Zucker rats [3]", "value": "39.35 ± 3.48", "unit": "ng/mL"},
      {"measurement": "Leptin", "setting": "Obese Zucker rats [4]", "value": 363.21, "unit": "pg/mL"},
      {"measurement": "RBP-4", "setting": "Obese Zucker rats [4]", "value": 60017.14, "unit": "ng/mL"},
      {"measurement": "Adiponectin", "setting": "Obese Zucker rats [4]", "value": 11752.86, "unit": "ng/mL"},
      {"measurement": "CRP", "setting": "Obese Zucker rats [4]", "value": 617.66, "unit": "ng/mL"},
      {"measurement": "ICAM", "setting": "Obese Zucker rats [4]", "value": 17950.97, "unit": "pg/mL"},
      {"measurement": "MCP-1", "setting": "Obese Zucker rats [4]", "value": 2607.07, "unit": "pg/mL"},
      {"measurement": "RBC Lipid Peroxidase", "setting": "Obese Zucker rats [5]", "value": 1.96, "unit": "nmol/mL"},
      {"measurement": "Fasting Glucose", "setting": "Obese Zucker rats [5]", "value": 513.43, "unit": "mg/dL"},
      {"measurement": "GSH", "setting": "Obese Zucker rats [5]", "value": 5.35, "unit": "µmol/g"},
      {"measurement": "HbA1c", "setting": "Obese Zucker rats [5]", "value": 15.55, "unit": "%"},
      {"measurement": "Vitamin C", "setting": "Obese Zucker rats [5]", "value": 0.13, "unit": "mg %"}
    ]},
    {"substance": "chromium polynicotinate", "values": [
      {"measurement": "chromium absorbed (average)", "setting": "[6]", "value": 0.2, "unit": "µg"}
    ]}
  ]
}
